One may read the IC50 as the midpoint of a concentration-inhibition curve.

SMILES strings stand for the structures.

Experiment [1] has as its system G-quadruplex of oligonucleotide GGGTTAGGGTTAGGGTTAGGG (3.5 repeats of the human telomereic motif). The experiment can be described thus: G-quadruplex stabilizing activity, fluorescence Tm (FAM+DABCYL oligonucleotide). In kind it is binding. The source says:
The G-quadruplex stabilizing activity may be determined by a method using the formation of a complex with fluorescein of which the experimental protocol is described below.
All the nucleotides, modified or otherwise, were synthesized by Eurogentec SA, Seraing, Belgium. The oligonucleotide FAM+DABCYL carries the catalogue reference OL-0371-0802. It has the sequence: […] corresponding to 3.5 repeats of the human telomereic motif (strand rich in G). The fluorescein is attached to the 5′ end, the DABCYL to the 3′ end, by the chemical arms described by Eurogentec. The concentration of the samples is checked by spectrophotometry, recording the absorbance spectrum between 220 and 700 nm and using the molar extinction coefficient provided by the supplier.
All the experiments were carried out in a 10 mM sodium cacodylate buffer pH 7.6 containing 0.1 M lithium chloride (or sodium chloride). The absence of fluorescent contamination in the buffer was checked beforehand. The fluorescent oligonucleotide is added at the final concentration of 0.2 μM.
All the measurements of fluorescence were carried out on a Spex Fluorolog DM1B apparatus, using an excitation line width of 1.8 nm and an emission line width of 4.5 nm. The samples are placed in a microquartz cuvette of 0.2×1 cm. The temperature of the sample is controlled by an external water bath. The oligonucleotide alone was analysed at 20, 30, 40, 50, 60, 70 and 80° C. The emission spectra are recorded using an excitation wavelength of 470 nm. The excitation spectra are recorded using either 515 nm or 588 nm as emission wavelength. The spectra are corrected for the response of the instrument by reference curves. A high extinction (80-90%) of the fluorescence of fluorescein at room temperature is observed, in agreement with an intramolecular folding of the oligonucleotide at 20° C. in the form of a G-quadruplex, which induces juxtaposition of its 5′ and 3′ ends which are respectively linked to fluorescein and to DABCYL. This juxtaposition causes an already-described phenomenon of extinction of fluorescence which is used for “molecular beacons”.
An oligonucleotide stock solution at the strand concentration of 0.2 μM in 0.1 M LiCl, 10 mM cacodylate buffer, pH 7.6, is prepared beforehand, heated briefly at 90° C. and slowly cooled to 20° C., and then distributed in aliquots of 600 μl in the fluorescence cuvettes. 3 μl of water (for the control) or 3 μl of test product (stock at 200 μM, final concentration 1 μM) are then added and mixed. The samples are then allowed to incubate for at least 1 hour at 20° C. before each measurement. The use of longer incubation times (up to 24 hours) has no influence on the result obtained.
Each experiment allows the measurement of only one sample. The latter is first incubated at an initial temperature of 20° C., heated to 80° C. over 38 minutes, left for 5 minutes at 80° C. and then cooled to 20° C. over 62 minutes. During this time, the fluorescence is measured simultaneously at two emission wavelengths (515 nm and 588 nm) using 470 nm as excitation wavelength. A measurement is carried out every 30 seconds. The temperature of the water bath is recorded in parallel, and the fluorescence profile as a function of the temperature is reconstituted from these values. The fluorescence profiles are then normalized between 20° C. and 80° C., and the temperature for which the intensity of emission at 515 nm is the mean of those at high and low temperature is called Tm. Under these conditions, the Tm of the reference sample without addition of product is 44° C. in a lithium chloride buffer. This temperature is increased to more than 55° C. in a sodium chloride buffer. The addition of a G-quadruplex-stabilizing compound induces an increase in the Tm. This increase is judged to be significant if it is greater than 3°.

The test system of experiment [2] is human telomerease (HL60 cell extract). Put plainly: Antitelomerease activity: extension of oligonucleotide TS followed by PCR amplification, with HL60 extract. In kind it is biochemical. The note with it: read-out: TRAP IC50. In outline:
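HL60 CHAPS-lysate extract extends TS primer (15 min, 30 °C) with compound at 10, 1, 0.1 and 0.01 µM, followed by 30-cycle PCR with TS and CXext. Products resolved on 12% acrylamide and quantified; % inhibition versus enzyme control and blank, IC50 read from semilog plot.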

Regarding `Cc1cc(N)c2cc(Nc3nc(Nc4ccc5nc(C)cc(N)c5c4)nc(Nc4cccc5cn[nH]c45)n3)ccc2n1` [Example 56], the “G4 delta Tm” value in experiment [1] is 2.5 °C. The IC50 in experiment [2] amounted to 350 nM.

As for `Cc1cc(N)c2cc(Nc3nc(Nc4ccc5nc(C)cc(N)c5c4)nc(N4CCN(CCN5CCCC5)CC4)n3)ccc2n1` [Example 75], in experiment [1], the “G4 delta Tm” value is 13.5 °C. Besides, the half-inhibitory concentration (IC50) in experiment [2] was determined as 50 nM.

Consider `Cc1cc(N)c2cc(Nc3nc(Nc4ccc5nc(C)cc(N)c5c4)nc(N4CCN(CCN(C)C)CC4)n3)ccc2n1` [Example 88], for which the “G4 delta Tm” value in experiment [1] was 6 °C. Besides, the IC50 in experiment [2] amounted to 110 nM.

Consider `Cc1cc(N)c2cc(Nc3nc(NCCN(C(C)C)C(C)C)nc(Nc4ccc5nc(C)cc(N)c5c4)n3)ccc2n1` [Example 39], for which the “G4 delta Tm” value in experiment [1] turned out to be 19.5 °C. Also, the IC50 in experiment [2] was determined as 230 nM.

With `CCN(CC)CCN(CCN(CC)CC)c1nc(Nc2ccc3nc(C)cc(N)c3c2)nc(Nc2ccc3nc(C)cc(N)c3c2)n1` [Example 40], in experiment [1], the “G4 delta Tm” value was 19 °C. In experiment [2], the IC50 came to 230 nM.

As to `Cc1cc(N)c2cc(Nc3nc(NCCN4CCN(Cc5ccccc5)CC4)nc(Nc4ccc5nc(C)cc(N)c5c4)n3)ccc2n1` [Example 74], the “G4 delta Tm” value in experiment [1] stood at 9.5 °C. The IC50 in experiment [2] is 140 nM.

On to `CCN(CC)CCSc1nc(Nc2ccc3nc(C)cc(N)c3c2)nc(Nc2ccc3nc(C)cc(N)c3c2)n1` [Example 130], for which, in experiment [1], the “G4 delta Tm” value stood at 9 °C. Also, the IC50 in experiment [2] is 300 nM.

As for `Cc1cc(N)c2cc(Nc3nc(Nc4ccc5nc(C)cc(N)c5c4)nc(N4CCN(C)CC4)n3)ccc2n1` [Example 14], in experiment [1], the “G4 delta Tm” value stood at 4.4 °C. The IC50 in experiment [2] is 210 nM.

With `Cc1cc(N)c2cc(Nc3nc(Nc4ccc5nc(C)cc(N)c5c4)nc(Oc4ccc5ccccc5c4)n3)ccc2n1` [Example 108], the “G4 delta Tm” value in experiment [1] stood at 3 °C. The IC50 in experiment [2] stood at 370 nM.

For `Cc1cc(N)c2cc(Nc3nc(Nc4ccc5nc(C)cc(N)c5c4)nc(OCCCN(C)C)n3)ccc2n1` [Example 31, 2,4-bis(4-amino-2-methylquinolin-6-yl)amino-6-(3-dimethylaminopropyl)oxy-[1,3,5]triazine], in experiment [1], the “G4 delta Tm” value is 15.3 °C. Also, the IC50 in experiment [2] was 300 nM.

`Cc1cc(N)c2cc(Nc3nc(Nc4ccc5nc(C)cc(N)c5c4)nc(N4CCCC(O)C4)n3)ccc2n1` (centres unmarked) [Example 160]: the “G4 delta Tm” value in experiment [1] was 10.5 °C. Also, the IC50 in experiment [2] amounted to 360 nM.

Consider `Cc1cc(N(C)C)c2cc(Nc3nc(Nc4ccc5nc(C)cc(N(C)C)c5c4)nc(N4CCCC4)n3)ccc2n1` [Example 23], for which the “G4 delta Tm” value in experiment [1] came out at 9.2 °C. In addition, the IC50 in experiment [2] turned out to be 3000 nM.

For `CCN(CC)CCNc1nc(Nc2ccc3nc(C)cc(N)c3c2)nc(Nc2ccc3nc(C)cc(N)c3c2)n1` [Example 36], the “G4 delta Tm” value in experiment [1] was found to be 17.5 °C. The IC50 in experiment [2] was 240 nM.

With `Cc1cc(N(C)C)c2cc(Nc3nc(Nc4ccc5nc(C)cc(N(C)C)c5c4)nc(N(CCO)CCO)n3)ccc2n1` [Example 161], the “G4 delta Tm” value in experiment [1] came to 12 °C. Also, in experiment [2], the IC50 amounted to 1900 nM.

On to `Cc1cc(N)c2cc(Nc3nc(NCc4ccc(Cl)cc4)nc(Nc4ccc5nc(C)cc(N)c5c4)n3)ccc2n1` [Example 67], for which, in experiment [1], the “G4 delta Tm” value came out at 6.5 °C. Also, the half-maximal inhibitory concentration (IC50) in experiment [2] was found to be 430 nM.

As to `Cc1cc(N)c2cc(Nc3nc(Nc4ccc5nc(C)cc(N)c5c4)nc(N4CCN(c5ccncc5)CC4)n3)ccc2n1` [Example 59], the “G4 delta Tm” value in experiment [1] stood at 11 °C. Besides, the IC50 in experiment [2] came to 190 nM.

Take `COCCNc1nc(Nc2ccc3nc(C)cc(N(C)C)c3c2)nc(Nc2ccc3nc(C)cc(N(C)C)c3c2)n1` [Example 25]: in experiment [1], the “G4 delta Tm” value turned out to be 4.2 °C. Also, the IC50 in experiment [2] amounted to 2200 nM.

As to `Cc1cc(N(C)C)c2cc(Nc3nc(Nc4ccc5nc(C)cc(N(C)C)c5c4)nc(N4CCOCC4)n3)ccc2n1` [Example 24], in experiment [1], the “G4 delta Tm” value turned out to be 9.7 °C. The IC50 in experiment [2] worked out at 1600 nM.

For `Cc1cc(N)c2cc(Nc3nc(Nc4ccc5nc(C)cc(N)c5c4)nc(N(C)CC4CCN(C)CC4)n3)ccc2n1` [Example 48], the “G4 delta Tm” value in experiment [1] amounted to 14 °C. The IC50 in experiment [2] is 100 nM.

As to `Cc1cc(N)c2cc(Nc3nc(NCCNC(C)C)nc(Nc4ccc5nc(C)cc(N)c5c4)n3)ccc2n1` [Example 91], the “G4 delta Tm” value in experiment [1] is 7 °C. The IC50 in experiment [2] is 370 nM.

On to `Cc1cc(N)c2cc(Nc3nc(Nc4ccc5nc(C)cc(N)c5c4)nc(Nc4ccc5nc(C)cc(N(C)C)c5c4)n3)ccc2n1` [Example 11, 2,4-bis(4-amino-2-methylquinolin-6-yl)amino-6-(4-dimethylamino-2-methylquinolin-6-yl)amino-[1,3,5]triazine], for which the “G4 delta Tm” value in experiment [1] is 11.4 °C. Besides, the IC50 in experiment [2] was determined as 160 nM.

In the case of `Cc1cc(N)c2cc(Nc3nc(Nc4ccc5nc(C)cc(N)c5c4)nc(Oc4ccncc4)n3)ccc2n1` [Example 32, 2,4-bis(4-amino-2-methylquinolin-6-yl)amino-6-(pyridin-4-yl)oxy-[1,3,5]triazine], in experiment [1], the “G4 delta Tm” value came to 10.0 °C. In addition, the IC50 in experiment [2] was determined as 300 nM.

Consider `Cc1cc(N)c2cc(Nc3nc(Nc4ccncc4)nc(Nc4ccccc4Cl)n3)ccc2n1` [Example 4], for which the “G4 delta Tm” value in experiment [1] came to 5.5 °C. Besides, the IC50 in experiment [2] was determined as 3000 nM.

Turning to `Cc1cc(N)c2cc(Nc3nc(Nc4ccc5nc(C)cc(N)c5c4)nc(N4CCN(CCOCCO)CC4)n3)ccc2n1` [Example 69], the “G4 delta Tm” value in experiment [1] was determined as 18 °C. Also, in experiment [2], the IC50 was 160 nM.

Regarding `Cc1cc(N(C)C)c2cc(Nc3nc(NCC(O)CO)nc(Nc4ccc5nc(C)cc(N(C)C)c5c4)n3)ccc2n1` (centres unmarked) [Example 176], the “G4 delta Tm” value in experiment [1] worked out at 6 °C. Besides, the half-inhibitory concentration (IC50) in experiment [2] stood at 3000 nM.

With `Cc1cc(N)c2cc(Nc3nc(Nc4ccc5nc(C)cc(N)c5c4)nc(N(C)C4CCN(Cc5ccccc5)C4)n3)ccc2n1` (centres unmarked) [Example 65], the “G4 delta Tm” value in experiment [1] stood at 12.5 °C. For the same compound, in experiment [2], the IC50 stood at 1000 nM.

As to `Cc1cc(N)c2cc(Nc3nc(NCCO)nc(Nc4ccc5nc(C)cc(N)c5c4)n3)ccc2n1` [Example 158], the “G4 delta Tm” value in experiment [1] is 8 °C. The IC50 in experiment [2] amounted to 850 nM.

On to `Cc1cc(N)c2cc(Nc3nc(NCCCN(C)C)nc(Nc4ccc5nc(C)cc(N(C)C)c5c4)n3)ccc2n1` [Example 9], for which the “G4 delta Tm” value in experiment [1] amounted to 10.0 °C. Besides, the IC50 in experiment [2] came out at 100 nM.

With `Cc1cc(N)c2cc(Nc3nc(Nc4ccc5nc(C)cc(N)c5c4)nc(Oc4cccc5ccccc45)n3)ccc2n1` [Example 107], the “G4 delta Tm” value in experiment [1] was 4.5 °C. The half-inhibitory concentration (IC50) in experiment [2] worked out at 370 nM.

`Cc1cc(N)c2cc(Nc3nc(NCCCN(C)C)nc(Nc4ccc5nc(C)cc(N)c5c4)n3)ccc2n1` [Example 12]: in experiment [1], the “G4 delta Tm” value is 9.4 °C. Besides, the half-inhibitory concentration (IC50) in experiment [2] was 300 nM.

With `Cc1cc(N)c2cc(Nc3nc(Nc4ccc5nc(C)cc(N)c5c4)nc(Nc4cccc5ccc(C)nc45)n3)ccc2n1` [Example 98], the “G4 delta Tm” value in experiment [1] was found to be 4 °C. Moreover, in experiment [2], the half-inhibitory concentration (IC50) was 350 nM.

As for `Cc1cc(N)c2cc(Nc3nc(NCc4cccnc4)nc(Nc4ccc5nc(C)cc(N)c5c4)n3)ccc2n1` [Example 66], the “G4 delta Tm” value in experiment [1] turned out to be 9 °C. The IC50 in experiment [2] was 280 nM.

As for `Cc1cc(N)c2cc(Nc3nc(Nc4ccc5nc(C)cc(N)c5c4)nc(Oc4ncccn4)n3)ccc2n1` [Example 111], the “G4 delta Tm” value in experiment [1] amounted to 23.5 °C. The 50% inhibitory concentration (IC50) in experiment [2] is 480 nM.

With `Cc1cc(N)c2cc(Nc3nc(Nc4ccc5nc(C)cc(N)c5c4)nc(N4CCN(c5ncccn5)CC4)n3)ccc2n1` [Example 58], the “G4 delta Tm” value in experiment [1] was 6 °C. For the same compound, in experiment [2], the 50% inhibitory concentration (IC50) was 220 nM.

Source of the values: patent US6887873B2, “Triazine derivatives and their application as antitelomerase agents” (Aventis Pharma S.A., priority 2001, dated 2005).
